Experimental data taken from ChEMBL document CHEMBL4311936, “Synthesis and structure-activity relationship studies of IgG-binding peptides focused on the C-terminal histidine residue” (Medchemcomm, 2019).
Bridge positions count the residues as written; N and C are the ends. Square brackets hold non-standard residues; d marks the D form. Peptide text beside a SMILES is read from it. * marks the point of attachment. ξ: configuration not given here. NH(4-OH-benzyl) = Oc1ccc(CN*)cc1; ξ2Pal = NC(Cc1ccccn1)C(=O)O; ξ3Pal = NC(Cc1cccnc1)C(=O)O; ξ4Pal = NC(Cc1ccncc1)C(=O)O; ξ2Thi = NC(Cc1cccs1)C(=O)O; ξCha = NC(CC1CCCCC1)C(=O)O; ξOrn = NCCCC(N)C(=O)O; ξDab = NCCC(N)C(=O)O

Assays:
Homo sapiens [1] = species on record: Homo sapiens; assay: Binding affinity to human IgG assessed as dissociation rate constant by SPR analysis
[2] = Binding affinity to human IgG assessed as dissociation constant by SPR analysis
Homo sapiens [3] = species on record: Homo sapiens; assay: Binding affinity to human IgG assessed as association rate constant by SPR analysis

| Compound | Kdiss (Homo sapiens [1]) | Kd [2] | Ka (Homo sapiens [3]) |
| --- | --- | --- | --- |
| CC(=O)N[C@@H](CC(=O)O)C(=O)N[C@H]1CSSC[C@@H](C(=O)N[C@H](C(=O)N[C@@H](Cc2ccccc2)C(=O)N[C@H](Cc2ccccn2)C(N)=O)[C@@H](C)O)NC(=O)[C@H](Cc2c[nH]c3ccccc23)NC(=O)[C@H](C(C)C)NC(=O)[C@H](CC(C)C)NC(=O)[C@H](CCC(=O)O)NC(=O)CNC(=O)[C@H](CC(C)C)NC(=O)[C@H](Cc2cnc[nH]2)NC(=O)[C@H](Cc2ccc(O)cc2)NC(=O)[C@H](C)NC1=O | 0.0304 s⁻¹ | 23 nM | 1.32e+06 M⁻¹ s⁻¹ |
| CC(=O)N[C@@H](CC(=O)O)C(=O)N[C@H]1CSSC[C@@H](C(=O)N[C@H](C(=O)N[C@@H](Cc2ccccc2)C(=O)NC(Cc2ccccn2)C(N)=O)[C@@H](C)O)NC(=O)[C@H](Cc2c[nH]c3ccccc23)NC(=O)[C@H](C(C)C)NC(=O)[C@H](CC(C)C)NC(=O)[C@H](CCC(=O)O)NC(=O)CNC(=O)[C@H](CCCCN)NC(=O)[C@H](Cc2cnc[nH]2)NC(=O)[C@H](Cc2ccc(O)cc2)NC(=O)[C@H](C)NC1=O (mixture of isomers) | 0.0579 s⁻¹ | 75.7 nM | 764000 M⁻¹ s⁻¹ |
| CC(=O)N[C@@H](CC(=O)O)C(=O)N[C@H]1CSSC[C@@H](C(=O)N[C@H](C(=O)N[C@@H](Cc2ccccc2)C(=O)N[C@@H](Cc2cnc[nH]2)C(=O)NCc2ccc(O)cc2)[C@@H](C)O)NC(=O)[C@H](Cc2c[nH]c3ccccc23)NC(=O)[C@H](C(C)C)NC(=O)[C@H](CC(C)C)NC(=O)[C@H](CCC(=O)O)NC(=O)CNC(=O)[C@H](CCCCN)NC(=O)[C@H](Cc2cnc[nH]2)NC(=O)[C@H](Cc2ccc(O)cc2)NC(=O)[C@H](C)NC1=O (Ac-DCAYHKGELVWCTFH-{NH(4-OH-benzyl)}; disulfide 2-12) | 0.122 s⁻¹ | 203 nM | 603000 M⁻¹ s⁻¹ |
| CC(=O)N[C@@H](CC(=O)O)C(=O)N[C@H]1CSSC[C@@H](C(=O)N[C@H](C(=O)N[C@@H](Cc2ccccc2)C(=O)NC(Cc2ccccn2)C(N)=O)[C@@H](C)O)NC(=O)[C@H](Cc2c[nH]c3ccccc23)NC(=O)[C@H](C(C)C)NC(=O)[C@H](CC(C)C)NC(=O)[C@H](CCC(=O)O)NC(=O)CNC(=O)[C@H](CC(C)C)NC(=O)[C@H](Cc2cnc[nH]2)NC(=O)[C@H](Cc2ccc(O)cc2)NC(=O)[C@H](C)NC1=O (mixture of isomers) | 0.00326 s⁻¹ | 2.19 nM | 1.49e+06 M⁻¹ s⁻¹ |
| CC(=O)N[C@@H](CC(=O)O)C(=O)N[C@H]1CSSC[C@@H](C(=O)N[C@H](C(=O)N[C@@H](Cc2ccccc2)C(=O)N[C@H](Cc2ccccn2)C(N)=O)[C@@H](C)O)NC(=O)[C@H](Cc2c[nH]c3ccccc23)NC(=O)[C@H](C(C)C)NC(=O)[C@H](CC(C)C)NC(=O)[C@H](CCC(=O)O)NC(=O)CNC(=O)[C@H](CCCCN)NC(=O)[C@H](Cc2cnc[nH]2)NC(=O)[C@H](Cc2ccc(O)cc2)NC(=O)[C@H](C)NC1=O | 0.344 s⁻¹ | 579 nM | 593000 M⁻¹ s⁻¹ |
| CC(=O)N[C@@H](CC(=O)O)C(=O)N[C@H]1CSSC[C@@H](C(=O)N[C@H](C(=O)N[C@@H](Cc2ccccc2)C(=O)N[C@@H](Cc2cnc[nH]2)C(=O)NCC(N)=O)[C@@H](C)O)NC(=O)[C@H](Cc2c[nH]c3ccccc23)NC(=O)[C@H](C(C)C)NC(=O)[C@H](CC(C)C)NC(=O)[C@H](CCC(=O)O)NC(=O)CNC(=O)[C@H](CCCCN)NC(=O)[C@H](Cc2cnc[nH]2)NC(=O)[C@H](Cc2ccc(O)cc2)NC(=O)[C@H](C)NC1=O (Ac-DCAYHKGELVWCTFHG-NH2; disulfide 2-12) | 0.208 s⁻¹ | 338 nM | 615000 M⁻¹ s⁻¹ |
| CC(=O)N[C@@H](CC(=O)O)C(=O)N[C@H]1CSSC[C@@H](C(=O)N[C@H](C(=O)N[C@@H](Cc2ccccc2)C(=O)N[C@@H](Cc2ccccc2)C(N)=O)[C@@H](C)O)NC(=O)[C@H](Cc2c[nH]c3ccccc23)NC(=O)[C@H](C(C)C)NC(=O)[C@H](CC(C)C)NC(=O)[C@H](CCC(=O)O)NC(=O)CNC(=O)[C@H](CCCCN)NC(=O)[C@H](Cc2cnc[nH]2)NC(=O)[C@H](Cc2ccc(O)cc2)NC(=O)[C@H](C)NC1=O (Ac-DCAYHKGELVWCTFF-NH2; disulfide 2-12) | 0.361 s⁻¹ | 506 nM | 713000 M⁻¹ s⁻¹ |
| CC(=O)N[C@@H](CC(=O)O)C(=O)N[C@H]1CSSC[C@@H](C(=O)N[C@H](C(=O)N[C@@H](Cc2ccccc2)C(=O)NC(CC2CCCCC2)C(N)=O)[C@@H](C)O)NC(=O)[C@H](Cc2c[nH]c3ccccc23)NC(=O)[C@H](C(C)C)NC(=O)[C@H](CC(C)C)NC(=O)[C@H](CCC(=O)O)NC(=O)CNC(=O)[C@H](CCCCN)NC(=O)[C@H](Cc2cnc[nH]2)NC(=O)[C@H](Cc2ccc(O)cc2)NC(=O)[C@H](C)NC1=O (some centres not stated) (Ac-DCAYHKGELVWCTF[ξCha]-NH2; disulfide 2-12) | 0.128 s⁻¹ | 165 nM | 776000 M⁻¹ s⁻¹ |
| CC(=O)N[C@@H](CC(=O)O)C(=O)N[C@H]1CSSC[C@@H](C(=O)N[C@H](C(=O)N[C@@H](Cc2ccccc2)C(=O)NC(Cc2ccccn2)C(=O)O)[C@@H](C)O)NC(=O)[C@H](Cc2c[nH]c3ccccc23)NC(=O)[C@H](C(C)C)NC(=O)[C@H](CC(C)C)NC(=O)[C@H](CCC(=O)O)NC(=O)CNC(=O)[C@H](CC(C)C)NC(=O)[C@H](Cc2cnc[nH]2)NC(=O)[C@H](Cc2ccc(O)cc2)NC(=O)[C@H](C)NC1=O (some centres not stated) (Ac-DCAYHLGELVWCTF[ξ2Pal]-OH; disulfide 2-12) | 0.0033 s⁻¹ | 2.48 nM | 1.35e+06 M⁻¹ s⁻¹ |
| CC(=O)N[C@@H](CC(=O)O)C(=O)N[C@H]1CSSC[C@@H](C(=O)N[C@H](C(=O)N[C@@H](Cc2ccccc2)C(=O)N[C@@H](Cc2c[nH]c3ccccc23)C(N)=O)[C@@H](C)O)NC(=O)[C@H](Cc2c[nH]c3ccccc23)NC(=O)[C@H](C(C)C)NC(=O)[C@H](CC(C)C)NC(=O)[C@H](CCC(=O)O)NC(=O)CNC(=O)[C@H](CCCCN)NC(=O)[C@H](Cc2cnc[nH]2)NC(=O)[C@H](Cc2ccc(O)cc2)NC(=O)[C@H](C)NC1=O (Ac-DCAYHKGELVWCTFW-NH2; disulfide 2-12) | – | 1220 nM | – |
| CC(=O)N[C@@H](CC(=O)O)C(=O)N[C@H]1CSSC[C@@H](C(=O)N[C@H](C(=O)N[C@@H](Cc2ccccc2)C(=O)NC(Cc2ccccn2)C(=O)O)[C@@H](C)O)NC(=O)[C@H](Cc2c[nH]c3ccccc23)NC(=O)[C@H](C(C)C)NC(=O)[C@H](CC(C)C)NC(=O)[C@H](CCC(=O)O)NC(=O)CNC(=O)[C@H](CCCCN)NC(=O)[C@H](Cc2cnc[nH]2)NC(=O)[C@H](Cc2ccc(O)cc2)NC(=O)[C@H](C)NC1=O (mixture of isomers) | 0.0674 s⁻¹ | 97.6 nM | 690000 M⁻¹ s⁻¹ |

More lines, now with the values ahead:

| Kdiss (Homo sapiens [1]) | Kd [2] | Ka (Homo sapiens [3]) | Compound |
| --- | --- | --- | --- |
| – | 710 nM | – | CC(=O)N[C@@H](CC(=O)O)C(=O)N[C@H]1CSSC[C@@H](C(=O)N[C@H](C(=O)N[C@@H](Cc2ccccc2)C(=O)NC(CCCN)C(N)=O)[C@@H](C)O)NC(=O)[C@H](Cc2c[nH]c3ccccc23)NC(=O)[C@H](C(C)C)NC(=O)[C@H](CC(C)C)NC(=O)[C@H](CCC(=O)O)NC(=O)CNC(=O)[C@H](CCCCN)NC(=O)[C@H](Cc2cnc[nH]2)NC(=O)[C@H](Cc2ccc(O)cc2)NC(=O)[C@H](C)NC1=O (some centres not stated) (Ac-DCAYHKGELVWCTF[ξOrn]-NH2; disulfide 2-12) |
| 0.749 s⁻¹ | 1020 nM | 731000 M⁻¹ s⁻¹ | CC(=O)N[C@@H](CC(=O)O)C(=O)N[C@H]1CSSC[C@@H](C(=O)N[C@H](C(=O)N[C@@H](Cc2ccccc2)C(=O)NC(CCN)C(N)=O)[C@@H](C)O)NC(=O)[C@H](Cc2c[nH]c3ccccc23)NC(=O)[C@H](C(C)C)NC(=O)[C@H](CC(C)C)NC(=O)[C@H](CCC(=O)O)NC(=O)CNC(=O)[C@H](CCCCN)NC(=O)[C@H](Cc2cnc[nH]2)NC(=O)[C@H](Cc2ccc(O)cc2)NC(=O)[C@H](C)NC1=O (some centres not stated) (Ac-DCAYHKGELVWCTF[ξDab]-NH2; disulfide 2-12) |
| 0.425 s⁻¹ | 550 nM | 772000 M⁻¹ s⁻¹ | CC(=O)N[C@@H](CC(=O)O)C(=O)N[C@H]1CSSC[C@@H](C(=O)N[C@H](C(=O)N[C@@H](Cc2ccccc2)C(=O)NC(Cc2cccnc2)C(N)=O)[C@@H](C)O)NC(=O)[C@H](Cc2c[nH]c3ccccc23)NC(=O)[C@H](C(C)C)NC(=O)[C@H](CC(C)C)NC(=O)[C@H](CCC(=O)O)NC(=O)CNC(=O)[C@H](CCCCN)NC(=O)[C@H](Cc2cnc[nH]2)NC(=O)[C@H](Cc2ccc(O)cc2)NC(=O)[C@H](C)NC1=O (some centres not stated) (Ac-DCAYHKGELVWCTF[ξ3Pal]-NH2; disulfide 2-12) |
| 0.389 s⁻¹ | 533 nM | 730000 M⁻¹ s⁻¹ | CC(=O)N[C@@H](CC(=O)O)C(=O)N[C@H]1CSSC[C@@H](C(=O)N[C@H](C(=O)N[C@@H](Cc2ccccc2)C(=O)NC(Cc2ccncc2)C(N)=O)[C@@H](C)O)NC(=O)[C@H](Cc2c[nH]c3ccccc23)NC(=O)[C@H](C(C)C)NC(=O)[C@H](CC(C)C)NC(=O)[C@H](CCC(=O)O)NC(=O)CNC(=O)[C@H](CCCCN)NC(=O)[C@H](Cc2cnc[nH]2)NC(=O)[C@H](Cc2ccc(O)cc2)NC(=O)[C@H](C)NC1=O (some centres not stated) (Ac-DCAYHKGELVWCTF[ξ4Pal]-NH2; disulfide 2-12) |
| 0.477 s⁻¹ | 841 nM | 567000 M⁻¹ s⁻¹ | CC(=O)N[C@@H](CC(=O)O)C(=O)N[C@H]1CSSC[C@@H](C(=O)N[C@H](C(=O)N[C@@H](Cc2ccccc2)C(=O)N[C@@H](C)C(N)=O)[C@@H](C)O)NC(=O)[C@H](Cc2c[nH]c3ccccc23)NC(=O)[C@H](C(C)C)NC(=O)[C@H](CC(C)C)NC(=O)[C@H](CCC(=O)O)NC(=O)CNC(=O)[C@H](CCCCN)NC(=O)[C@H](Cc2cnc[nH]2)NC(=O)[C@H](Cc2ccc(O)cc2)NC(=O)[C@H](C)NC1=O (Ac-DCAYHKGELVWCTFA-NH2; disulfide 2-12) |
| 0.169 s⁻¹ | 220 nM | 771000 M⁻¹ s⁻¹ | CC(=O)N[C@@H](CC(=O)O)C(=O)N[C@H]1CSSC[C@@H](C(=O)N[C@H](C(=O)N[C@@H](Cc2ccccc2)C(=O)NC(Cc2cccs2)C(N)=O)[C@@H](C)O)NC(=O)[C@H](Cc2c[nH]c3ccccc23)NC(=O)[C@H](C(C)C)NC(=O)[C@H](CC(C)C)NC(=O)[C@H](CCC(=O)O)NC(=O)CNC(=O)[C@H](CCCCN)NC(=O)[C@H](Cc2cnc[nH]2)NC(=O)[C@H](Cc2ccc(O)cc2)NC(=O)[C@H](C)NC1=O (some centres not stated) (Ac-DCAYHKGELVWCTF[ξ2Thi]-NH2; disulfide 2-12) |
